As usually defined, the MIC is the least concentration at which growth counts as inhibited.

The record followed here is patent US20190142800A1, “SYNERGISTIC ANTIFUNGAL COMPOSITIONS AND METHODS THEREOF” (VYOME THERAPEUTICS LIMITED, priority 2016, published 2019).

This assay has as its system Trichophyton rubrum (ATCC-28188). As to the kind of experiment: Checkerboard assay of fatty acid/ester with antifungals on Trichophyton rubrum (ATCC 28188). It counts as cell-based. Set-up: key to FIC index: FIC index = sum of FICs; FIC = agent conc in well / agent MIC. To be noted: for Agent MIC: agent alone; for MIC: Trichophyton rubrum, ATCC28188, agent alone. The method, then:
The synergy is measured by determining the fractional inhibitory concentration (FIC) value of the combination. This experimental set up, called checkerboard method, allows measurement of a desired effect (inhibition of fungal growth in this case) at different combinations of various concentrations of the two agents (antifungal agent and fatty acid/ester). […] No agent is added to the penultimate column on the right and the bottom row. The final column on the right is used for growth control (only inoculum in broth) and sterility control (broth alone, no inoculum). […] FIC value for each agent in a particular well of the checkerboard layout was calculated by dividing the agent concentration in that well by the established MIC value of the agent against the test organism (Hsieh et al., Synergy assessed by checkerboard: A critical Analysis, Diagn. Microbiol. Infect Dis. (1993) 16:343-349). FIC values for both agents in a particular well were calculated in this way followed by determination of the FIC index (sum of the FICs of each drug in the concerned well). […] Agents Chemother. (2010) 54(2): 602-609].
Using the checkerboard layout experimental setup described above (FIG. 1A), various medium-chain fatty acids were tested for their ability to potentiate the activity of a known antifungal agent. Concentrations above and below the MIC of each test agent were tested using serial dilution. The same procedure was expanded to test combinations of various medium-chain fatty acids C-1 to C-14 (such caprylic acid, undecylenic acid and lauric acid) and esters thereof, with antifungal agents from various classes including azoles, allylamines, benzylamines, zinc pyrithione and piroctone olamine against both susceptible and resistant Trichophyton spp. (filamentous fungus) and Candida spp. (yeast).
Potentiation of the activity of antimycotic agents using ester derivatives of medium chain fatty acids was tested in a standard, well accepted in vitro assay system to check for synergy. This experimental set up, called checkerboard method, allows measurement of a desired effect (inhibition of fungal growth in this case) at different combinations of various concentrations of two agents. A chosen medium chain fatty acid (C-1 to C-14) or its ester derivative was tested for its ability to potentiate the activity of a known antifungal agent (various classes) using the checkerboard layout. Various concentrations above and below the MIC of each test agent were tested using serial dilution in Sabouraud dextrose broth. […] FIC value for a drug in a particular well of the checkerboard layout is calculated by dividing the drug concentration in that well by the established MIC value of the drug against the test organism (Hsieh et al., Synergy assessed by checkerboard: A critical Analysis, Diagn. Microbiol. Infect Dis. (1993) 16:343-349). FIC values for both test agents in a particular well are calculated in this way followed by determination of the FIC index (sum of the FICs of each drug in the concerned well).

The mark [1] stands for this setting: Table 2, propylene glycol monocaprylate series.
Setting [2] is: Table 4, undecylenic acid (C11) series.
Where [3] appears, read: Table 6, propylene glycol monolaurate series.
The mark [4] stands for this setting: agent's MIC in combination antifungal + propylene glycol monocaprylate (partner: other agent of same combination no.).
Setting [5] is: agent's MIC in combination antifungal + propylene glycol monolaurate (partner: other agent of same combination no.).
Where [6] appears, read: agent's MIC in combination antifungal + undecylenic acid (partner: other agent of same combination no.).
[7] abbreviates: antifungal in combination with lauric acid.
[8] abbreviates: antifungal in combination with propylene glycol monocaprylate.
Where [9] appears, read: antifungal in combination with propylene glycol monolaurate.
[10] abbreviates: antifungal in combination with undecylenic acid.
[11] abbreviates: combination antifungal + propylene glycol monocaprylate.
[12] abbreviates: combination antifungal + propylene glycol monolaurate.
Setting [13] is: combination antifungal + undecylenic acid.
[14] abbreviates: Table 3, glyceryl monocaprylate series.
Where [15] appears, read: agent's MIC in combination antifungal + caprylic acid (partner: other agent of same combination no.).
Setting [16] is: agent's MIC in combination antifungal + glyceryl monocaprylate (partner: other agent of same combination no.).
Setting [17] is: antifungal in combination with caprylic acid.
[18] abbreviates: antifungal in combination with glyceryl monocaprylate.
Setting [19] is: combination antifungal + caprylic acid.
Setting [20] is: combination antifungal + glyceryl monocaprylate.

Regarding `C[C@@H]1[C@H](O)[C@@H](C)/C=C/C=C/C=C/C=C/C=C/C=C/C=C/[C@H](O[C@@H]2O[C@H](C)[C@@H](O)[C@H](N)[C@@H]2O)C[C@@H]2O[C@](O)(C[C@@H](O)C[C@@H](O)[C@H](O)CC[C@@H](O)C[C@@H](O)CC(=O)O[C@H]1C)C[C@H](O)[C@H]2C(=O)O` [Amphotericin B], the “Agent MIC” value reads like this: under setting [1], 0.5 µg/mL; under setting [2], 0.5 µg/mL; (Table 5, lauric acid (C12) series) 0.5 µg/mL; under setting [3], 0.5 µg/mL. The “Combination MIC” value was 0.125 µg/mL (agent's MIC in combination antifungal + lauric acid (partner: other agent of same combination no.)), 0.125 µg/mL under setting [4], 0.125 µg/mL under setting [5] and 0.06 µg/mL under setting [6]. Also, the FIC index is 0.75 under setting [7], 0.5 under setting [8], 0.5 under setting [9] and 0.62 under setting [10]. Besides, the Interaction result is, setting by setting: under setting [7], “Synergistic (Combinations that gave FIC indices less than 1 were designated “synergistic”)”; under setting [8], “Synergistic (Combinations that gave FIC indices less than 1 were designated “synergistic”)”; under setting [9], “Synergistic (Combinations that gave FIC indices less than 1 were designated “synergistic”)”; under setting [10], “Synergistic (Combinations that gave FIC indices less than 1 were designated “synergistic”)”. The FIC runs as follows: (combination antifungal + lauric acid) 0.25; under setting [11], 0.25; under setting [12], 0.25; under setting [13], 0.12.
Take `CC[C@H](C)C[C@H](C)CCCCCCCCC(=O)N[C@H]1C[C@@H](O)[C@@H](NCCN)NC(=O)[C@@H]2[C@@H](O)CCN2C(=O)[C@H]([C@H](O)CCN)NC(=O)[C@H]([C@H](O)[C@@H](O)c2ccc(O)cc2)NC(=O)[C@@H]2C[C@@H](O)CN2C(=O)[C@H]([C@@H](C)O)NC1=O` [Caspofungin]: the MIC (Table 1, caprylic acid series) is 64 µg/mL; the MIC under setting [1] was determined as 64 µg/mL; the MIC under setting [14] worked out at 64 µg/mL; the MIC under setting [2] came to 64 µg/mL; the MIC under setting [3] came out at 64 µg/mL. Also, the “Combination MIC” value is, setting by setting: under setting [15], 16 µg/mL; under setting [16], 2 µg/mL; under setting [4], 0.125 µg/mL; under setting [5], 0.125 µg/mL; under setting [6], 16 µg/mL. Moreover, the FIC index is, setting by setting: under setting [17], 0.75; under setting [18], 0.531; under setting [8], 0.252; under setting [9], 0.502; under setting [10], 0.5. Besides, the Interaction entry runs as follows: under setting [17], “Synergistic (Combinations that gave FIC indices less than 1 were designated “synergistic”)”; under setting [18], “Synergistic (Combinations that gave FIC indices less than 1 were designated “synergistic”)”; under setting [8], “Synergistic (Combinations that gave FIC indices less than 1 were designated “synergistic”)”; under setting [9], “Synergistic (Combinations that gave FIC indices less than 1 were designated “synergistic”)”; under setting [10], “Synergistic (Combinations that gave FIC indices less than 1 were designated “synergistic”)”. In addition, the FIC under setting [19] was found to be 0.25; the FIC under setting [20] is 0.031; the FIC under setting [11] stood at 0.002; the FIC under setting [12] was 0.002; the FIC under setting [13] was found to be 0.25.
As for `Cc1cc(C2CCCCC2)n(O)c(=O)c1` [Ciclopirox], the MIC by setting is: (Table 1, caprylic acid series) 2 µg/mL; under setting [1], 2 µg/mL; under setting [14], 2 µg/mL. Also, the “Combination MIC” value stood at 0.5 µg/mL under setting [15], 0.03 µg/mL under setting [16] and 0.06 µg/mL under setting [4]. Also, the FIC index is, setting by setting: under setting [17], 0.75; under setting [18], 0.501; under setting [8], 0.503. Further, the Interaction result reads like this: under setting [17], “Synergistic (Combinations that gave FIC indices less than 1 were designated “synergistic”)”; under setting [18], “Synergistic (Combinations that gave FIC indices less than 1 were designated “synergistic”)”; under setting [8], “Synergistic (Combinations that gave FIC indices less than 1 were designated “synergistic”)”. Also, the FIC was determined as 0.25 under setting [19], 0.015 under setting [20] and 0.03 under setting [11].
Regarding `Cc1cc(CC(C)CC(C)(C)C)n(O)c(=O)c1.NCCO` (stereo not shown) [Piroctone olamine], the “Agent MIC” value stood at 4 µg/mL (Table 1, caprylic acid series); 2.5 µg/mL under setting [1]; 4 µg/mL under setting [14]. In addition, the “Combination MIC” value runs as follows: under setting [15], 2 µg/mL; under setting [16], 2 µg/mL. Further, the FIC index reads like this: under setting [17], 0.75; under setting [18], 0.562. For the same compound, the Interaction result reads like this: under setting [17], “Synergistic (Combinations that gave FIC indices less than 1 were designated “synergistic”)”; under setting [18], “Synergistic (Combinations that gave FIC indices less than 1 were designated “synergistic”)”; under setting [8], “Synergistic (Combinations that gave FIC indices less than 1 were designated “synergistic”)”. The FIC reads like this: under setting [19], 0.5; under setting [20], 0.5.
Zinc pyrithione: the “Agent MIC” value (Table 1, caprylic acid series) is 3.125 µg/mL; the “Agent MIC” value under setting [1] worked out at 3.125 µg/mL; the “Agent MIC” value under setting [14] came to 3.125 µg/mL. In addition, the “Combination MIC” value under setting [15] amounted to 0.195 µg/mL and the “Combination MIC” value under setting [16] is 0.195 µg/mL. Besides, the FIC index turned out to be 0.19 under setting [17], 0.3125 under setting [18] and 0.75 under setting [8]. The Interaction entry is, setting by setting: under setting [17], “Synergistic (Combinations that gave FIC indices less than 1 were designated “synergistic”)”; under setting [18], “Synergistic (Combinations that gave FIC indices less than 1 were designated “synergistic”)”; under setting [8], “Synergistic (Combinations that gave FIC indices less than 1 were designated “synergistic”)”. The FIC amounted to 0.06 under setting [19] and 0.0625 under setting [20].
